Entries after “also recorded” stand apart in the source; their conditions may differ.
Key:
[1] = test system: HBB genomic region; assay: Sanger sequencing of the HBB genomic region after Cas9 and gRNA transfection; type: cell-based, Human; conditions: FIG. 6C / FIG. 13B, A549 cells, unmodified Cas9
[2] = test system: A549 cells; assay: Resazurin reduction assay, gRNA targeting exon 1 of HBB gene; type: cell-based, Human; conditions: FIG. 6B / FIG. 13A
Experimental: Cells are cultured in a 96-well plate and each well is seeded with about 2.5×10^4 cells. Each column of the 96-well plate receives a treatment with different plasmid respectively. […] The cells in the first column are transfected with plasmids encoding the first fusion protein as shown in FIG. 1; the cells in the second column with plasmids encoding the second fusion protein as shown in FIG. 1; the cells in the third column with plasmids encoding the third fusion protein as shown in FIG. 1; the cells in the fourth column with plasmids encoding the fourth fusion protein as shown in FIG. 1; the cells in the fifth column with plasmids encoding the fifth fusion protein as shown in FIG. 1; the cells in the sixth column with plasmids encoding the sixth fusion protein as shown in FIG. 1; the cells in the seventh column with plasmids encoding the seventh fusion protein as shown in FIG. 1; the cells in the eighth column with plasmids encoding the eighth fusion protein as shown in FIG. 1; and the cells in the ninth column with plasmids encoding the ninth fusion protein as shown in FIG. 1. […] The cells in the twelfth column are transfected with plasmids encoding GFPs. The cells in the […] are controls without any treatment.
Each of the plasmid constructs also contained a nucleotide sequence encoding a gRNA directed to recognize exon 1 of the human HBB gene. […] Three gRNA sequences as listed in Table 2 directed to recognize one of HBB gene's exon were used.
Toxicity was quantified using Resazurin as in Example 1.

[3] = test system: phosphorylated 5′-double strand DNA ends; conditions: cited from earlier work

Molecule	Cas9 cleavage and repair via NHEJ (INDELs) by Sanger sequencing [1]	cellular toxicity of HBB gRNA guides with unmodified Cas9 (NT) [2]	cellular toxicity of HBB gRNA guides with unmodified Cas9 (NT) ([2]; listed as NT HBB-G3)	cellular toxicity of HBB gRNA guides with unmodified Cas9 (NT) ([2]; listed as gRNA G3)	Cas9 cleavage and repair via NHEJ (INDELs) by Sanger sequencing ([1]; listed as Cas9 HBB-G3)	affinity for phosphorylated 5′-double strand DNA ends as for unphosphorylated [3]
HBB-G1: gRNA designed to target Exon 1 of the HBB gene, SEQ ID NO: 21 (guide GUAACGGCAGACUUCUCCUC; chemistry not given here)	could not be detected					
HBB-G3: gRNA designed to target Exon 1 of the HBB gene, SEQ ID NO: 23 (guide GAGGUGAACGUGGAUGAAGU; chemistry not given here)	characteristic noise following Cas9 cleavage and repair via NHEJ pathways; also recorded: significant cleavage	higher toxicity than either HBB-G1 or HBB-G2	smallest normalized fold change number	highest cellular toxicity	generation of INDELs	
hExo1: human Exo1 exonuclease; N-terminal nuclease region SEQ ID NO: 1 (protein, listed as Homo sapiens) MGIQGLLQFIKEASEPIHVRKYKGQVVAVDTYCWLHKGAIACAEKLAKGEPTDRYVGFCMKFVNMLLSHGIKPILVFDGCTLPSKKEVERSRRERRQANLLKGKQLLREGKVSEARECFTRSINITHAMAHKVIKAARSQGVDCLVAPYEADAQLAYLNKAGIVQAIITEDSDLLAFGCKKVILKMDQFGNGLEIDQARLGMCRQLGDVFTEEKFRYMCILSGCDYLSSLRGIGLAKACKVLRLANNPDIVKVIKKIGHYLKMNITVPEDYINGFIRANNTFLYQLVFDPIKRKLIPLNAYEDDVDPETLSYAGQYVDDSIALQIALGNKDINTFEQIDDYNPDTAMPAHSRSHSWDDKTCQKSANVSSIWHRNYSPRPESGTVSDAPQLKE						roughly 10 ×

Reference: patent US20210403922A1 (CRISP-HR Therapeutics, Inc., priority 2019, published 2021)
